Entries after “also recorded” stand apart in the source; their conditions may differ.
Legend:
Format in all cases: cell-based, Human
[1] = system: ∆K280 tauRD-DsRed SH-SY5Y cells; test: Western blot in ΔK280 tauRD-DsRed SH-SY5Y cells; conditions: LM-021 10 μM, immunoblot
Experimental: (§1) To monitor the cAMP-mediated signal transduction pathway, CRE-GFP 293 cells in 6-well plates (1 × 10^6/well) were pretreated with kinase inhibitor H-89 (LC Laboratories, Woburn, MA, USA), KN-62 (Cayman Chemical, Ann Arbor, MI, USA), U0126 (LC Laboratories), or wortmannin (LC Laboratories) (10 μM) for 4 h before forskolin or LM-021 (10 μM) addition for 5 h. GFP fluorescence/protein and total/phosphorylated PKA, CaMKII, ERK, PI3K, and CREB levels were examined. In addition, Aβ-GFP or ∆K280 tauRD-DsRed SH-SY5Y cells were treated with retinoic acid (10 μM) on day 1, followed by the addition of LM-021 (5 or 10 μM) and doxycycline (5 or 2 μg/ml) on day 2, as described. Kinase inhibitors (10 μM) were added on day 6. On day 8, the cells were collected for protein expression analysis of BDNF, BCL2 (BCL2 apoptosis regulator), and BAX (BCL2 associated X, apoptosis regulator), and total/phosphorylated PKA, CaMKII, ERK, PI3K, and CREB. Also, cells were stained with DAPI and assessed for neurite outgrowth as described above.
Total proteins from CRE-GFP 293 and Aβ-GFP, ∆K280 tauRD-DsRed SH-SY5Y cells were extracted using lysis buffer (50 mM Tris-HCl (pH 8.0), 150 mM NaCl, 1 mM EDTA (pH 8.0), 1 mM EGTA (pH 8.0), 0.1% SDS, 0.5% sodium deoxycholate, 1% Triton X-100) containing phosphatase and protease inhibitor cocktails (Sigma-Aldrich). Protein concentrations were measured using a protein assay kit (Bio-Rad, Hercules, CA, USA), and 20 μg of proteins was separated with 10% SDS-PAGE and blotted onto polyvinylidene difluoride (PVDF) membranes (Sigma-Aldrich). After blocking, the membrane blot was incubated with primary antibody against GFP (1 : 500; Santa Cruz Biotechnology, Santa Cruz, CA, USA), PKA (1 : 1000; R&D Systems, Minneapolis, MN, USA), p-PKA (T197) (1 : 1000; Cell Signaling, Danvers, MA, USA), ERK (1 : 500; Cell Signaling), p-ERK (T202/Y204) (1 : 500; Cell Signaling), CaMKII (1 : 1000; Santa Cruz Biotechnology), p-CaMKII (T286) (1 : 1000; Cell Signaling), CREB (1 : 1000; Santa Cruz Biotechnology), p-CREB (S133) (1 : 1000; Millipore, Billerica, MA, USA), BDNF (1 : 500; Santa Cruz Biotechnology), BCL2 (1 : 500; BioVision), BAX (1 : 500; BioVision), GAPDH (glyceraldehyde-3-phosphate dehydrogenase, as a loading control) (1 : 1000; MDBio, Taipei, Taiwan), or β-tubulin (1 : 1000, Sigma-Aldrich, as a loading control). The immune complexes were visualized using horseradish peroxidase-conjugated goat anti-mouse or goat anti-rabbit IgG antibody (1 : 5000, GeneTex, Irvine, CA, USA) and a chemiluminescent substrate (Millipore).

CRE-GFP 293 cells = test: CRE-GFP 293 reporter cell assay (flow cytometry); conditions: 5–10 μM, 5 h, in the presence or absence of Ca2+ ionophore (2 μM)
Aβ-GFP SH-SY5Y cells = test: High content analysis of neurite outgrowth in Aβ-GFP cells; conditions: 5 μM
Experimental: On day 1, Aβ-GFP or ∆K280 tauRD-DsRed SH-SY5Y cells were plated into 24-well plates (6 × 10^4/well) followed by addition of retinoic acid. On day 2, cells were treated with coumarin-chalcone derivatives (5 or 10 μM) and with doxycycline (5 or 2 μg/ml) to induce the expression of Aβ-GFP or ∆K280 tauRD-DsRed. On day 8, 4% paraformaldehyde, 0.1% Triton X-100, and 3% BSA were used to fix, permeabilize, and block cells, respectively. Subsequently, the cells were stained with TUBB3 (neuronal class III β-tubulin) primary antibody (1 : 1000; Covance, Princeton, NJ, USA) at 4°C overnight. Goat anti-rabbit Alexa Fluor 555 secondary antibody (1 : 1000; Thermo Fisher Scientific) was then added, followed by a 3 h incubation at room temperature. Following staining nuclei with 4′,-6-diamidino-2-phenylindole (DAPI) (0.1 μg/ml; Sigma-Aldrich), the neurons were imaged by using the HCA system and analysed by using the Neurite Outgrowth Application Module (MetaXpress; Molecular Devices).
as §1

For `CN(C)c1ccc(/C=C/C(=O)c2c(O)c3ccccc3oc2=O)cc1` [LM-021, (E)-3-(3-(4-(dimethylamino)phenyl)acryloyl)-4-hydroxy-2H-chromen-2-one], which BAX protein level [1] is on record?
Its BAX protein level is “decreased”.

And the “Level of PKA, CaMKII, or ERK” value [1]?
The value was “nor LM-021 treatment significantly altered”.

What about the “p-CREB, CREB, pro-BDNF, m-BDNF, and BCL2 protein levels” value [1] of the same compound?
The value was “significantly upregulated”.

What about the “p-PKA, p-CaMKII, and p-ERK protein levels” value [1] of the same compound?
Its value is “increased”.

And the “CRE-motif-driven GFP expression” value (CRE-GFP 293 cells)?
Its value is “significantly activated”.

What about the “Neurite length, processes, and branches” value (Aβ-GFP SH-SY5Y cells) of the same compound?
Its value is “successfully ameliorated; also recorded: salvaged”.
